Counter-ions that a name gives are not always drawn.
What was measured:
PARP-1 = target: T1, PARP-1 (Homo sapiens, UniProt P09874); assay: PARP-1 autoparsylation assay (HTRF); type: biochemical; settings: His-tagged Parp-1, autoparsylation HTRF
T1 construct: purchased Enzo Life Sciences GmbH, Lörrach, Germany
Text: Description of the PARP1 Assay
Biochemical Activity Testing of PARP-1: Autoparsylation Assay
The autoparsylation assay is run in two steps: the enzymatic reaction in which His-tagged Parp-1 transfers biotinylated ADP-ribose/ADP-ribose to itself from biotinylated NAD/NAD as co-substrate and the detection reaction where a time resolved FRET between cryptate labelled anti-His antibody bound to the His tag of the enzyme and Xlent® labelled-streptavidin bound the biotin-parsylation residue is analysed. The autoparsylation activity is detectable directly via the increase in HTRF signal.
The autoparsylation assay is performed as 384-well HTRF® (Cisbio, Codolet, France) assay format in Greiner low volume nb 384-well microtiter plates. […] The ratio of the emission signals is determined. The full value used is the inhibitor-free reaction. The pharmacological zero value used is Olaparib (LClabs, Woburn, US) in a final concentration of 1 μM. The inhibitory values (IC50) are determined using either the program Symyx Assay Explorer® or Condosseo® from GeneData.

TNKS2 = target: T2, TNKS2 (Homo sapiens, UniProt Q9H2K2); assay: TNKS2 activity ELISA (autoparsylation assay); type: biochemical; settings: GST-tagged Tnks-2 (873-1166 aa); read-out: IC50 [M] TNKS2 ELISA
T2 construct: GST-tagged Tnks-2 (873-1166 aa, prepared in-house); made in house
T2 sequence (Q9H2K2 873-1166): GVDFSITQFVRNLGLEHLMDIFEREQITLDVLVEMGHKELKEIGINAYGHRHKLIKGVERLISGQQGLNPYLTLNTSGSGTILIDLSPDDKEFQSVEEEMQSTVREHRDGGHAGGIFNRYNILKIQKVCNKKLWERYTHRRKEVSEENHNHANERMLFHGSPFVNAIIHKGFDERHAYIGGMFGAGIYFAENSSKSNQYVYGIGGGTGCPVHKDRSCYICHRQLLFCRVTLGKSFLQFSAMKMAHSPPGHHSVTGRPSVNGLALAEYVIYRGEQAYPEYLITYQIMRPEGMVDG
In short: (§1)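 Autoparsylation ELISA: biotinylated NAD serves as co-substrate for plate-bound GST-TNKS1/TNKS2, incubated with test compounds. Readout is HRP luminescence after streptavidin-HRP binding, referenced to the no-inhibitor reaction, from which IC50 values are derived.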

TNKS1 = target: T3, TNKS1 (Homo sapiens, UniProt O95271); assay: TNKS1 activity ELISA (autoparsylation assay); type: biochemical; settings: GST-tagged Tnks-1 (1023-1327 aa)
T3 construct: GST-tagged Tnks-1 (1023-1327 aa, prepared in-house); made in house
T3 sequence (O95271 1023-1327): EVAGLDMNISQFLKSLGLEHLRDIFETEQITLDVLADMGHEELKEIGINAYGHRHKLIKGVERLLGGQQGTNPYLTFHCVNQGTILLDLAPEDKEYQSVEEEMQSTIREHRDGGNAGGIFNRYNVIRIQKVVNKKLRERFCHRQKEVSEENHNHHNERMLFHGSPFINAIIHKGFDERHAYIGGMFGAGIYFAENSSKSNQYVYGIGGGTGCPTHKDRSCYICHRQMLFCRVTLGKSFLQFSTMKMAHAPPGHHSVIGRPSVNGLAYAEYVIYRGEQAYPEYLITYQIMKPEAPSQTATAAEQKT
In short: as §1

Tankyrases = settings: read-out: EC50 [M] TNKS cellular assay; DLD1 cells, 24 hours, Axin2 increase
Experimental: Measurement of Cellular Inhibition of Tankyrase
Cells of the colon carcinoma cell line DLD1 are plated in 96 well plates with 1.5×10^4 cells per well. Next day, cells are treated with a serial dilution of test compound in seven steps as triplicates with a final DMSO concentration of 0.3%. […] The amount of isolated Axin2 protein is determined in a Luminex^200 machine (Luminex Corporation) according to the manufacturer's instruction by counting 100 events per well. […] As controls cells are treated with solvent alone (neutral control) and with a Tankyrase reference inhibitor IWR-2 (3E−06 M) which refers as control for maximum increase of Axin2. For analysis, the obtained data are normalized against the untreated solvent control and fitted for determination of the EC50 values using the Assay Explorer software (Accelrys).

T1 sequence (P09874 whole entry): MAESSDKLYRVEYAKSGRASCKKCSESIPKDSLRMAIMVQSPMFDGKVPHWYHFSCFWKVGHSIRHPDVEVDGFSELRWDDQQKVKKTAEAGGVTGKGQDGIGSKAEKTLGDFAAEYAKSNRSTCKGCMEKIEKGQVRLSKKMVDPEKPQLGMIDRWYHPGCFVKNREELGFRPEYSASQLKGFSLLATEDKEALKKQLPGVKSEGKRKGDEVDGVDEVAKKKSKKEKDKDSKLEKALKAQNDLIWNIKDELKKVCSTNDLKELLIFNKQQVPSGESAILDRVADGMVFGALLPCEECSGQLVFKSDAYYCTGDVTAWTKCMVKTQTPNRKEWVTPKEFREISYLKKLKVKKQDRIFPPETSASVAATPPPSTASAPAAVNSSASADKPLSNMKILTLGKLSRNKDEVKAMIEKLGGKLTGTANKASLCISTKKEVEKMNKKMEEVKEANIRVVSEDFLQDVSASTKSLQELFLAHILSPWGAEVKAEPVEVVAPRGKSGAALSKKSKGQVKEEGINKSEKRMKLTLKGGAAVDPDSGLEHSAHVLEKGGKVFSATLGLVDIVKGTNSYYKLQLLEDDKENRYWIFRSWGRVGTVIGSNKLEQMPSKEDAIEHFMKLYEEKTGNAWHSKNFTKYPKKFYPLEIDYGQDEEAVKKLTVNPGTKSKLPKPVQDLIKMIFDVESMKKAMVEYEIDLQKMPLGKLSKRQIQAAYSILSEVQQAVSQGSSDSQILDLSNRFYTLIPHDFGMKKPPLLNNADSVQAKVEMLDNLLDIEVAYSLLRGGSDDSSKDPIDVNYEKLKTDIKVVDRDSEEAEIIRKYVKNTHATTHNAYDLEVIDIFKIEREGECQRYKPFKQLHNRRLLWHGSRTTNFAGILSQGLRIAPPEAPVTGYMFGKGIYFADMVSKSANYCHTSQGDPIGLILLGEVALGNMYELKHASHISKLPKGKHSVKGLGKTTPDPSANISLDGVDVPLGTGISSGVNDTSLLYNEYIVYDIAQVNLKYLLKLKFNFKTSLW

Structure (SMILES) | IC50 (PARP-1) [nM] | IC50 (TNKS2) [M] | IC50 (TNKS1) [nM] | EC50 (Tankyrases) [M]
Cn1ccc2c(=O)[nH]c(CCCC(=O)N3CCC(c4cnc(N)c(-c5ncccn5)c4)CC3)nc21 [Compound C183, 2-[4-(6-Amino-5-pyrimidin-2-yl-3′,4′,5′,6′-tetrahydro-2′H-[3,4′]bipyridinyl-1′-yl)-4-oxo-butyl]-7-methyl-3,7-dihydro-pyrrolo[2,3-d]pyrimidin-4-one] | 1600 | 2.9e-10 | 0.54 | 1e-08
COc1ccc(C(=O)C2CCN(C(=O)CCCc3nc4c(ccn4C)c(=O)[nH]3)CC2)cc1 [Compound C40, 2-{4-[4-(4-Methoxy-benzoyl)-piperidin-1-yl]-4-oxo-butyl}-7-methyl-3,7-dihydro-pyrrolo[2,3-d]pyrimidin-4-one] | 1600 | < 1e-10 | 0.17 | 3.2e-09
Cc1ncc2c(=O)[nH]c(CCCC(=O)N3CCC(C(=O)c4cnn(C)c4)CC3)cn12 [Compound C105, 3-Methyl-6-{4-[4-(1-methyl-1H-pyrazole-4-carbonyl)-piperidin-1-yl]-4-oxo-butyl}-7H-imidazo[1,5-a]pyrazin-8-one] | 29000 | 5.7e-10 | 0.43 | 3.9e-07
COc1ccc(C(=O)C2CCN(C(=O)CCCc3nc4c(c(=O)[nH]3)COCC4)CC2)cc1F [Compound C192, 2-{4-[4-(3-Fluoro-4-methoxy-benzoyl)-piperidin-1-yl]-4-oxo-butyl}-3,5,7,8-tetrahydro-pyrano[4,3-d]pyrimidin-4-one] | 12000 | 2.1e-09 | 5.6 | 4.9e-08
Cc1scc2c(=O)[nH]c(CCCC(=O)N3CCC(C(=O)c4ccc(F)cc4)CC3)nc12 [Compound C119, 2-{4-[4-(4-Fluoro-benzoyl)-piperidin-1-yl]-4-oxo-butyl}-7-methyl-3H-thieno[3,4-d]pyrimidin-4-one] | 850 | 6.2e-10 | 0.9 | 3.3e-08
COc1ccc(C(=O)C2CCN(C(=O)CCCc3nn4cccc4c(=O)[nH]3)CC2)cc1F [Compound C136, 2-{4-[4-(3-Fluoro-4-methoxy-benzoyl)-piperidin-1-yl]-4-oxo-butyl}-3H-pyrrolo[2,1-f][1,2,4]triazin-4-one] | 3100 | 2.1e-10 | 0.25 | 3.6e-09
Cc1csc2c(=O)[nH]c(CCCC(=O)N3CCC(C(=O)c4ccc(F)cc4)CC3)nc12 [Compound C131, 2-{4-[4-(4-Fluorobenzoyl)-1-piperidyl]-4-oxo-butyl}-7-methyl-3H-thieno[3,2-d]pyrimidin-4-one] | 270 | 2.1e-10 | 0.36 | 1.6e-08
Cc1scc2c(=O)[nH]c(CCCC(=O)N3CCC(c4cnc(N)c(C#N)c4)CC3)nc12 [Compound C115, 6-Amino-1′-[4-(7-methyl-4-oxo-3,4-dihydro-thieno[3,4-d]pyrimidin-2-yl)-butyryl]-1′,2′,3′,4′,5′,6′-hexahydro-[3,4′]bipyridinyl-5-carbonitrile trifluoroacetate] | 570 | 1.3e-09 | 0.98 | 4.9e-08
COc1ccc(C(=O)C2CCN(C(=O)CCCc3nc4c(ccn4C)c(=O)[nH]3)CC2)cn1 [Compound C181, 2-{4-[4-(6-Methoxy-pyridine-3-carbonyl)-piperidin-1-yl]-4-oxo-butyl}-7-methyl-3,7-dihydro-pyrrolo[2,3-d]pyrimidin-4-one] | 2300 | 2.4e-10 | 0.65 | 7.3e-09
Cc1ccc2c(=O)[nH]c(CCCC(=O)N3CCC(Oc4ccc(C#N)cc4)CC3)cn12 [Compound C7, 4-{1-[4-(6-Methyl-1-oxo-1,2-dihydro-pyrrolo[1,2-a]pyrazin-3-yl)-butyryl]-piperidin-4-yloxy}-benzonitrile] | 1800 | 2e-09 | 2.6 | 4.7e-08
COc1ccc(C(=O)C2CCN(C(=O)CCCc3cn4c(C)ccc4c(=O)[nH]3)CC2)cc1C [Compound C3, 3-{4-[4-(4-Methoxy-3-methyl-benzoyl)-piperidin-1-yl]-4-oxo-butyl}-6-methyl-2H-pyrrolo[1,2-a]pyrazin-1-one] | 820 | 1.7e-10 | 0.14 | 2.9e-10
COc1ccc(C(=O)C2CCN(C(=O)CCCc3nc4c(C)csc4c(=O)[nH]3)CC2)cc1 [Compound C35, 2-{4-[4-(4-Methoxy-benzoyl)-piperidin-1-yl]-4-oxo-butyl}-7-methyl-3H-thieno-[3,2-d]pyrimidin-4-one] | 130 | 1.1e-10 | 0.19 | 4.2e-10
COc1ccc(C(=O)C2CCN(C(=O)CCCc3nn4cc(C)cc4c(=O)[nH]3)CC2)cn1 [Compound C159, 2-{4-[4-(6-Methoxy-pyridine-3-carbonyl)-piperidin-1-yl]-4-oxo-butyl}-6-methyl-3H-pyrrolo[2,1-f][1,2,4]triazin-4-one] | 2200 | 2.7e-09 | 1.2 | 3.6e-08
Cc1cc2c(=O)[nH]c(CCCC(=O)N3CCC(C(=O)c4ccc(F)cc4)CC3)nn2c1 [Compound C164, 2-{4-[4-(4-Fluoro-benzoyl)-piperidin-1-yl]-4-oxo-butyl}-6-methyl-3H-pyrrolo[2,1-f][1,2,4]triazin-4-one] | 2200 | 2.8e-09 | 0.79 | 2.5e-08
N#Cc1cc(C2CCN(C(=O)CCCc3nn4cc(F)cc4c(=O)[nH]3)CC2)cnc1N [Compound C171, 6-Amino-1′-[4-(6-fluoro-4-oxo-3,4-dihydro-pyrrolo[2,1-f][1,2,4]triazin-2-yl)-butyryl]-1′,2′,3′,4′,5′,6′-hexahydro-[3,4′]bipyridinyl-5-carbonitrile] | 6300 | 3.6e-09 | 1.7 | 4.6e-08
Cc1cc2c(=O)[nH]c(CCCC(=O)N3CCC(c4cnc(N)c(-c5ncccn5)c4)CC3)nn2c1 [Compound C161, 2-[4-(6-Amino-5-pyrimidin-2-yl-3′,4′,5′,6′-tetrahydro-2′H-[3,4′]bipyridinyl-1′-yl)-4-oxo-butyl]-6-methyl-3H-pyrrolo[2,1-f][1,2,4]triazin-4-one] | 4300 | 2.9e-09 | 0.62 | 9.7e-09
COc1ccc(C(=O)C2CCN(C(=O)CCCc3nc4c(ccn4C)c(=O)[nH]3)CC2)cc1F [Compound C180, 2-{4-[4-(3-Fluoro-4-methoxy-benzoyl)-piperidin-1-yl]-4-oxo-butyl}-7-methyl-3,7-dihydro-pyrrolo[2,3-d]pyrimidin-4-one] | 1900 | < 1e-10 | 0.18 | 3.3e-09
COc1ccc(C(=O)C2CCN(C(=O)CCCc3nn4cc(F)cc4c(=O)[nH]3)CC2)cc1F [Compound C169, 6-Fluoro-2-{4-[4-(3-fluoro-4-methoxy-benzoyl)-piperidin-1-yl]-4-oxo-butyl}-3H-pyrrolo[2,1-f][1,2,4]triazin-4-one] | 2200 | 2.2e-10 | 0.17 | 2.5e-09
COc1ccc(C(=O)C2CCN(C(=O)CCCc3cn4nc(C)cc4c(=O)[nH]3)CC2)cn1 [Compound C231, 6-{4-[4-(6-Methoxy-pyridine-3-carbonyl)-piperidin-1-yl]-4-oxo-butyl}-2-methyl-5H-pyrazolo[1,5-a]pyrazin-4-one] | 4500 | 5.4e-10 | 0.36 | 5.4e-09
Cn1ccc2c(=O)[nH]c(CCCC(=O)N3CCC(C(=O)c4ccc(F)cc4)CC3)nc21 [Compound C186, 2-{4-[4-(4-Fluoro-benzoyl)-piperidin-1-yl]-4-oxo-butyl}-7-methyl-3,7-dihydro-pyrrolo[2,3-d]pyrimidin-4-one] | 1200 | 1.9e-09 | 0.41 | 1.4e-08
Nc1ncc(C2CCN(C(=O)CCCc3nn4cc(F)cc4c(=O)[nH]3)CC2)cc1-c1ncccn1 [Compound C172, 2-[4-(6-Amino-5-pyrimidin-2-yl-3′,4′,5′,6′-tetrahydro-2′H-[3,4′]bipyridinyl-1′-yl)-4-oxo-butyl]-6-fluoro-3H-pyrrolo[2,1-f][1,2,4]triazin-4-one] | 2500 | 5.3e-10 | 0.61 | 6.8e-09
N#Cc1cc(C2CCN(C(=O)CCCc3nc4c(c(=O)[nH]3)CCCC4)CC2)cnc1N [Compound C232, 6-Amino-1′-[4-(4-oxo-3,4,5,6,7,8-hexahydro-quinazolin-2-yl)-butyryl]-1′,2′,3′,4′,5′,6′-hexahydro-[3,4′]bipyridinyl-5-carbonitrile] | 2700 | 5.7e-09 | 20 | 5.6e-08

From patent US9809598B2 (Merck Patent GmbH, priority 2014, dated 2017)
